# Experimental data published in US20250027072A1, “METHODS AND CO[…] TO ENGINEERED CANNABINOID RECEPTORS” (priority 2021, published 2025).
# pEC50: −log10 of the molar value. Read-outs that look alike come from different tables or passages of the source.
# Legend:
# [1] = molecular target: T1, human cannabinoid receptor type II (CB2R) (Homo sapiens, UniProt P34972); assay: cell-based; type: cell-based; settings: Ste2 signal sequence CB2R; read-out: EC50, dose response with CB2R
# Description: (§1) To efficiently transduce signals from the human machinery to the yeast pathway, the yeast 5 C-terminal residues of the G-alpha gene GPA1 were replaced with the sequence of the Gαi3 human G-alpha variant as previously described (Brown et al. 2000). ZsGreen1 was used to report on the activity of the pathway, integrating it into the genome in place of the pheromone-inducible Fig1 gene (FIG. 14A).
# (§2) Yeast colonies were picked and grown overnight to saturation in pH 5.8 SD-His media in a 2.2 mL deep well plate (Axygen) grown in a plate-shaking incubator (30° C., 1000 rpm, 3 mm orbital). In the morning cultures were diluted 1:10 or 1:25 in SD-His media buffered to pH 7.1 with 100 mM MOPSO (unless otherwise specified). Ligands were added to the culture and incubated with shaking for 8 hours. Cells were then washed three times with ice-cold Tris buffer (pH 7) and diluted 1:20 for cytometry. All cytometry was performed on a Sony SA3800 spectral analyzer. Each sample was tested for 10,000 events, and read at a rate of 1,000 events per second. All assays as reported here were filtered only for singlet populations.
# [2] = molecular target: T1, human cannabinoid receptor type II (CB2R); assay: cell-based; type: cell-based; set-up: other: syn-prepro CB2R; "Syn=synthetic pre-pro"; fused on or other part: synthetic yeast pre-pro secretion leader (syn-prepro) fused at the N-terminus; settings: EC50, dose response with CB2R, syn-prepro CB2R
# Description: as §1, §2
# [3] = molecular target: T1, human cannabinoid receptor type II (CB2R); assay: cell-based; type: cell-based; set-up: other: MF alpha leader CB2R; "MF-α=mating factor alpha pre-pro"; fused on or other part: yeast mating factor alpha (MFα) pre-pro leader fused at the N-terminus; settings: EC50, dose response with CB2R, MF alpha leader CB2R
# Description: as §1, §2
# [4] = molecular target: T1, human cannabinoid receptor type II (CB2R); assay: cell-based; type: cell-based; set-up: MFα (mating factor alpha) pre-pro leader (N); expressed in transfected cells; host or cells: Saccharomyces cerevisiae BY4741-derived biosensor strain (Gpa1-Gαi3 chimera, ZsGreen reporter); sterol-modified strain ST03 for the screens, pH 5.8; settings: EC50, dose response with CB2R, WT CB2R (no leader)
# Description: as §1, §2
# [5] = molecular target: T2, human Cannabinoid Receptor 1 (CB1R) (Homo sapiens, UniProt P21554); type: cell-based
# T2 construct: syn-prepro (synthetic yeast pre-pro secretion leader) (N); expressed in transfected cells; host or cells: Saccharomyces cerevisiae BY4741-derived strain (ste2, sst2, far1 knocked out); Gpa1-Gαi3 chimera
# CB1R = molecular target: T3, CB1R (Homo sapiens, UniProt P21554); settings: Banister et al., 2015; read-out: EC50 with CB1R in mouse AtT-20 neuroblastoma cells; cited from earlier work
# T3 construct: host or cells: mouse AtT-20 cells
# [6] = molecular target: T1, human cannabinoid receptor type II (CB2R); assay: cell-based; type: cell-based; set-up: Normalized Activity at 1 μM, CB2R; other: PINACA compounds, 1 μM; Normalized Activity at 1 μm, CB2R; other: 5-fluoro PB-22 isomers, 1 μm; other: MFα-CB2R, ST03 sterol strain, pH 5.8; activity against CB2R; other: at 10 nM, dose response; preference at CB2R of ADB-BINACA over AB-PINACA; signaling at CB2R in synthetic cannabinoid screen; fused on or other part: yeast mating factor alpha (MFα) pre-pro leader fused at the N-terminus as a trafficking signal
# Description: as §1, §2
# T2 sequence (P21554 90-472): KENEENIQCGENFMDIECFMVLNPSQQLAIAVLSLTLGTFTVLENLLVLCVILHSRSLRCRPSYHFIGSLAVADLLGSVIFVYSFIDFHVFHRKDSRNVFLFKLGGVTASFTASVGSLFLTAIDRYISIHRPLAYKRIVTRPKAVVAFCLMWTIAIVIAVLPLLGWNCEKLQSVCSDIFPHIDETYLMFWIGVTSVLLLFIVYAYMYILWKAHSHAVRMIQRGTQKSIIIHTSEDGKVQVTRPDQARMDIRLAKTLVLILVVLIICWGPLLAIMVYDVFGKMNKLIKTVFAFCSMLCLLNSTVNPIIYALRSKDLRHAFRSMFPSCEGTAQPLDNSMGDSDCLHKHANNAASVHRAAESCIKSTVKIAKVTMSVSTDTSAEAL
# T1 sequence (P34972 whole entry): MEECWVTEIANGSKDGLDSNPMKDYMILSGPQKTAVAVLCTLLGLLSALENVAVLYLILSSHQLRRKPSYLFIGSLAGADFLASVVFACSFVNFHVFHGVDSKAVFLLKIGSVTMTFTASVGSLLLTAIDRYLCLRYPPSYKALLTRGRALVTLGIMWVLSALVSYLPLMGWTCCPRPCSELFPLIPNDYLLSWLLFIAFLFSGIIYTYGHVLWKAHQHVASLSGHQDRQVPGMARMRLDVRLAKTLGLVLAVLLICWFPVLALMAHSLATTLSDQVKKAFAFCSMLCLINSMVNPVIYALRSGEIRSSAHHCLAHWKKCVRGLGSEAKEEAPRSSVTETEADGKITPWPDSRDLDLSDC
# T3 sequence (P21554 whole entry): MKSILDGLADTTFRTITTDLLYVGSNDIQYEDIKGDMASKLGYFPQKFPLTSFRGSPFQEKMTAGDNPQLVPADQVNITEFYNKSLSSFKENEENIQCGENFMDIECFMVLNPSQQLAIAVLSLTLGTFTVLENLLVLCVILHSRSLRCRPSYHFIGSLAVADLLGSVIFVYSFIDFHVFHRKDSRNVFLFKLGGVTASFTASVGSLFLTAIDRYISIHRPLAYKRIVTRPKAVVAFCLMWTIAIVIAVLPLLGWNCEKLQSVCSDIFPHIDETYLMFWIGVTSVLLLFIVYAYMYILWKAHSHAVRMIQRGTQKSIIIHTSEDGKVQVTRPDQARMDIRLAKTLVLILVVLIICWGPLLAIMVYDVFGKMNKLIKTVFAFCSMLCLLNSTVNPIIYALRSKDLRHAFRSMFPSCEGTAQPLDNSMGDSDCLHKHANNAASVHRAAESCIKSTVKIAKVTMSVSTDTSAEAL
SMILES,pEC50 [1],pEC50 [2],pEC50 [3],pEC50 [4],"relative fluorescence of the ACEA positive control at CB1R ([5]; compounds at 10 nM, 100 μM ACEA control)",signaling at CB1R in synthetic cannabinoid screen relative to 100 μM ACEA positive control ([5]; compounds at 1 μM),"EC50 at CB1R, synthetic cannabinoid dose response ([5]; syn-prepro-Δ89-CB1R, wild type ergosterol strain)","pEC50 ([5]; syn-prepro-Δ89-CB1R, wild type ergosterol strain, read-out: EC50 at CB1R, synthetic cannabinoid dose response)",pEC50 (CB1R),"pEC50 ([6]; MFα-CB2R, ST03 sterol strain, pH 5.8, read-out: EC50 at CB2R, dose response)",signaling at CB2R in synthetic cannabinoid screen ([6]; compounds at 1 μM)
"CCCCC/C=C\C/C=C\C/C=C\C/C=C\CCCC(=O)OC(CO)CO [2-AG, 2-arachidonoyl glycerol]",6.82,5.81,6.80,7.15,,,,,,,
CCCCCn1nc(C(=O)N[C@H](C(N)=O)C(C)C)c2ccccc21 [AB-PINACA],,,,,strong signaling,maximal fluorescence,low nanomolar range,8.92,8.92,6.97,high activity
